Results from patent US7855200B2, “Method for treatment of gastric ulcers and ulcers induced by aspirin” (Council of Scientific and Industrial Research, priority 2006, dated 2010).
Several values for one entry are separate records, joined by “and”; a condition that tells them apart may be missing. Equal values may be shown once.

Legend:
Assay type in all cases: in vivo, albino rats
[1] = test system: gastric ulceration in cold restraint rats; experiment: Cold restraint (stress) induced ulcers; set-up: Ulcer index Mean(SE): scale not given here; settings: rats, 4° C. for 2 hours
Outline: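 Albino rats, fasted 48 h with free water, dosed orally with compound at 25 mg/kg or at 50, 25, 15, 10 and 5 mg/kg in 1% Tween 80 vehicle. Water removed 1 h before restraint at 4° C for 2 h. Sacrificed 2 h after stress; stomachs opened along greater curvature and scored as mean ulcer index.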

[2] = test system: gastric ulcers induced by aspirin, ethanol, stress and pylorus ligation; experiment: Antigastric ulcer screening by four different models (statements in words); settings: summary statement
Excerpt: The compounds taken under study for antigastric ulcer screening by four different models were selected using experimental albino rats: • 1. Aspirin induced gastric ulceration • 2. Pylorus ligated gastric ulceration • 3. Ethanol induced gastric ulceration • 4. Stress induced gastric ulceration
The commercially available drug ranitidine (sigma), Omeprazole (sigma) and sucralfate (Merck) were used as reference standard in experimental models. The Tween-80 (SD fine chemicals) was used as vehicle for the administration of the drug, which is used as control.

[3] = test system: acetyl salicylic acid induced gastric lesions; experiment: Acetyl salicylic acid (aspirin) induced gastric ulcer; set-up: Ulcer index Mean(SE): scale not given here; settings: rats, aspirin 200 mg/kg
Outline: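 Rats in groups of 6 were dosed orally once a day for five days with test compounds suspended in 1% Tween 80. A 1% Tween 80 control group and a ranitidine 50 mg/kg group were included. Aspirin at 200 mg/kg was given orally 30 min after each dose. After a 24 hour fast, the rats were killed by cervical dislocation. Stomachs were opened along the greater curvature, rinsed with lukewarm saline, examined under a dissecting microscope and scored for ulcer index.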

[4] = 5 mg/kg per orally daily for five days
[5] = 10 mg/kg per orally daily for five days
[6] = 15 mg/kg per orally daily for five days
[7] = 25 mg/kg per orally daily for five days
[8] = 50 mg/kg per orally daily for five days

Structure (SMILES): COC(=O)C1OC(Oc2cc3oc(-c4ccccc4)cc(=O)c3cc2OC)C(O)C(O)C1O (stereo not shown) [OA-5, 3,4,5-trihydroxy-6-(6-methoxy-4-oxo-2-phenyl-4-H-chromen-7-yoloxy) tetrahydro-pyran-2-carboxylicacid methyl ester]
- Inhibition % ([1]; 5 mg/kg per orally): 31.55%
- Ulcer index Mean(SE) ([1]; 5 mg/kg per orally): 27.5
- Inhibition % ([1]; 10 mg/kg per orally): 41.92%
- Ulcer index Mean(SE) ([1]; 10 mg/kg per orally): 23.33
- Inhibition % ([1]; 15 mg/kg per orally): 50.14%
- Ulcer index Mean(SE) ([1]; 15 mg/kg per orally): 19.99
- Inhibition % ([1]; 25 mg/kg per orally): 75.45%
- Ulcer index Mean(SE) ([1]; 25 mg/kg per orally, 25 mg/kg): 9.997 and 9.99
- Inhibition % ([1]; 50 mg/kg per orally): 78.22%
- Ulcer index Mean(SE) ([1]; 50 mg/kg per orally): 8.75
- antiulcer activity (in words) ([2]; listed as Oroxyloside methyl ester): excellent potent molecule
- antiulcer activity (in words) ([2]; listed as oroxyloside methyl ester): potent activity
- Inhibition % [3, 4]: 18.75%
- Ulcer index Mean(SE) [3, 4]: 36.66
- Inhibition % [3, 5]: 40.98%
- Ulcer index Mean(SE) [3, 5]: 26.66
- Inhibition % [3, 6]: 40.98%
- Ulcer index Mean(SE) [3, 6]: 26.66
- Inhibition % [3, 7]: 74.55%
- Ulcer index Mean(SE) [3, 7]: 11.06
- Inhibition % [3, 8]: 77.84%
- Ulcer index Mean(SE) [3, 8]: 10.00
